Broadly, the ED50 is the dose at which the effect has come halfway, by size or by number of responders.

The values below come from US6184422A, “Cyclohexanediol derivatives” (priority 1998, dated 2001).

The nature of data set [1]: Calcium Liability (Tolerance Test in Mice). As to conditions: for MTD: mouse, in vivo, sc; for HTD/VDR: ratio HTDsc mouse (μg/kg) / VDR act ED50 (nanomolar). An excerpt:
1. Calcium Liability (Tolerance Test in Mice)
This test gives a global picture of calcemic liability. Profound changes in calcium homeostasis strongly affect the weight development of the animals. This parameter was used as a primary test for tolerance. […] Body weight was registered just before and at the end of a 5 day treatment period.

A short description of data set [2]: The Mouse Model: epidermal thickening (acanthosis) in hairless mice. As to conditions: mouse, in vivo, po.
For data set [3], the system named is epidermal thickening (acanthosis) in hairless mice. The data set is described as above. The settings on record: for ED50: Mus musculus, po, read-out: ED50: dose causing half-maximal epidermal thickening; for ratio (TI) HTD/ED50: HTDpo/ED50.
Data set [4] concerns epidermal proliferation in minipigs. The data set is described as follows: animal or person. As to conditions: for minimal effective dose: Sus scrofa, 168 h, read-out: Effective dose (dose that increases the normal LI at least 50%); for minimal effective dose / Calcemic dose: po; for Calcemic dose: minipig, in vivo, 10080 min; for TI (ratio Calc./Eff.): oral, calcemic dose / effective dose. The protocol: Orally administered vitamin D analogs can lead to epidermal proliferation in minipigs. This skin effect is considered as indicative for an antipsoriatic potential of vitamin D analogs. […] The pigs were daily observed as to adverse effects such as behavior, mobility, stool. At day seven bromodeoxyuridine (4 mg/kg) was injected intravenously into the treated pigs and 2 hours later skin biopsies (6 mm diameter) and blood were taken for analysis. The skin biopsies were fixed in formalin, and paraffin sections were prepared using standard procedures. Using standard immuno-histochemical techniques, cells in the S-phase (DNA synthesis phase) were labelled by the binding of a specific monoclonal antibody against the thymidine analogue bromodeoxyuridine. The number of labelled epidermal cells per unit of length along the surface was taken as a measure of epidermal proliferative activity (labelings index LI). Clinical chemistry was performed using Cobas Mira.
*The effective dose is the dose that increases the normal LI at least 50%

The next data set addresses T1, human VDR (Homo sapiens, UniProt P11473).
T1 construct: expressed in transfected cells; host or cells: COS cells, expression vector pSG5
T1 sequence (P11473 1-427): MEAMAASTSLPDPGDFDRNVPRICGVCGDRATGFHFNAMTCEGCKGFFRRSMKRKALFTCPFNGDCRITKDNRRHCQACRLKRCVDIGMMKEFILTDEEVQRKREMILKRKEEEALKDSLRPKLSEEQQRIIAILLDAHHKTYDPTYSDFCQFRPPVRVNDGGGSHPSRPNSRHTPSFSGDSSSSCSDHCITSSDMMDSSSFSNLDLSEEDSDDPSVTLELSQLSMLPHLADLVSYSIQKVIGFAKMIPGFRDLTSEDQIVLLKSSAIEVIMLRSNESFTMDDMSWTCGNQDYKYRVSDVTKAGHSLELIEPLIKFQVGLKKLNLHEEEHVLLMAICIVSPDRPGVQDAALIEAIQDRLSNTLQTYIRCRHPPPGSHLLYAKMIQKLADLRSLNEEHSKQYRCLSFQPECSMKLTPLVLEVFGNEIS
In words: VDR Activation (transcription activation assay in COS cells, luciferase reporter). Format: cell-based. The settings on record: COS cells cotransfected with human VDR and VDRE3/luciferase reporter; read-out: VDR act (ED50, nanomolar). The source says:
In order to measure the activation of the vitamin D receptor (VDR) by vitamin D analogs in cells a transcription activation assay was used. COS cells were cotransfected with the human VDR (expressed in pSG5) and a reporter gene containing three response elements (VDRE3) from the rat osteocalcine gene, the thymidine kinase basal promoter, and the luciferase reporter gene, respectively.
Background: Reporter assays use an easily measured gene product as a stand-in for the process of interest.

A further data set is described as follows: in vivo. As to conditions: mouse, po.

SMILES strings stand for the structures.

As for `CC(C)(C/C=C\C(O)(C(F)(F)F)C(F)(F)F)CCC/C=C/C=C1C[C@@H](O)C[C@H](O)C1` [A, (1R,3R)-5-[(2E,9Z)-12,12,12-trifluoro-11-hydroxy-7,7-dimethyl-11-trifluoromethyl-dodeca-2,9-dienylidene)-cyclohexane-1,3-diol], in data set [1], the MTD stood at 2.5 mg/kg and the HTD/VDR is listed as 14. In data set [2], this compound came in with an MTD of 1 mg/kg. The ED50 in data set [3] was 7.5 mg/kg. Further, the “ratio (TI) HTD/ED50” value in data set [3] (hairless mice, oral) turned out to be 0.13. Further, in data set [4], the minimal effective dose is 0.1 mg/kg and the Calcemic dose was 5 mg/kg. The “TI (ratio Calc./Eff.)” value in data set [4] (minipigs) is on record as 50. For the same compound, the EC50 at human VDR worked out at 180 nM.

As to `C=C1/C(=C\C=C\CCCC(C)(C)C/C=C\C(O)(C(F)(F)F)C(F)(F)F)C[C@@H](O)C[C@@H]1O` [B, (Z)-(1R,3S)-4-methylene-5-[(2E,9Z)-12,12,12-trifluoro-11-hydroxy-7,7-dimethyl-11-trifluoromethyl-dodeca-2,9-dienylidene]-cyclohexane-1,3-diol], in data set [1], the MTD is 3 mg/kg and the HTD/VDR is 60. For the same compound, the MTD in data set [2] was determined as 0.4 mg/kg. In addition, the ED50 in data set [3] came out at 3 mg/kg. Moreover, in data set [3] (hairless mice, oral), the “ratio (TI) HTD/ED50” value turned out to be 0.13. Further, in data set [4], the minimal effective dose was 1 mg/kg and the Calcemic dose is 2 mg/kg. Also, in data set [4] (minipigs), the “TI (ratio Calc./Eff.)” value was 2. In addition, the EC50 at human VDR was determined as 50 nM.

As for `C=C1/C(=C\C=C\CCCC(C)(C)C/C=C/C(O)(C(F)(F)F)C(F)(F)F)C[C@@H](O)C[C@@H]1O` [C, (Z)-(1R,3S)-5-((2E,9E)-12,12,12-trifluoro-11-trifluoromethyl-11-hydroxy-7,7-dimethyl-dodec-2,9-dienylidene)-4-methylene-cyclohexane-1,3-diol], the MTD was found to be 0.2 mg/kg in data set [1] and 0.06 mg/kg in data set [2]. Besides, in data set [1], the HTD/VDR is on record as 50. Further, the ED50 in data set [3] is 0.45 mg/kg. Moreover, in data set [3] (hairless mice, oral), the “ratio (TI) HTD/ED50” value is recorded as 0.13. Also, the EC50 on human VDR was 4 nM.

With `C=C1/C(=C\C=C2/CCC[C@]3(C)[C@@H]([C@H](C)CCCC(C)(C)O)CC[C@@H]23)C[C@@H](O)C[C@@H]1O` [Calcitriol, reference compound], in data set [3], the ED50 came to 0.5 mg/kg. Moreover, in data set [3] (hairless mice, oral, calcitriol animals treated for three days), the “skin effects at the highest tolerated dose (in words)” value was “not able to elicit skin effects”. For the same compound, in data set [4], the minimal effective dose is > 0.0225 mg/kg and the Calcemic dose is 0.003 mg/kg. The “epidermal hyperproliferation (in words)” value in data set [4] (minipigs, even at 9 times the dose that induces hypercalcemia) was “did not induce hyperproliferation”.

Consider `CC(C)(CCC/C=C/C=C1C[C@@H](O)C[C@H](O)C1)CCCC(O)(C(F)(F)F)C(F)(F)F` [Compound E, (1R,3R)-5-[(2E)-12,12,12-trifluoro-11-hydroxy-7,7-dimethyl-11-trifluoromethyl-dodec-2-enylidene)-cyclohexane-1,3-diol], for which, in data set [1], the MTD was 0.1 mg/kg and the HTD/VDR amounted to 15. The MTD in data set [2] came to 0.04 mg/kg. Further, the ED50 in data set [3] turned out to be 0.2 mg/kg. Moreover, the “ratio (TI) HTD/ED50” value in data set [3] (hairless mice, oral) came to 0.2. Besides, on human VDR, the EC50 stood at 6.6 nM.

For the compound `CC(C)(C/C=C/C(O)(C(F)(F)F)C(F)(F)F)CCC/C=C/C=C1C[C@@H](O)C[C@H](O)C1` [D, (1R,3R)-5-[(2E,9E)-12,12,12-trifluoro-11-trifluoromethyl-11-hydroxy-7,7-dimethyl-dodeca-2,9-dienylidene]-cyclohexane-1,3-diol], in data set [1], the MTD stood at 0.1 mg/kg and the HTD/VDR turned out to be 18. The compound further registered an MTD in data set [2] of 0.05 mg/kg. Further, in data set [3], the ED50 was 0.5 mg/kg. For the same compound, in data set [3] (hairless mice, oral), the “ratio (TI) HTD/ED50” value is on record as 0.1. On human VDR, the EC50 turned out to be 5.7 nM.

In the case of `C=C1/C(=C\C=C\CCCC(C)(C)CCCC(O)(C(F)(F)F)C(F)(F)F)C[C@@H](O)C[C@@H]1O` [F, (Z)-(1R,3S)-5-[(2E)-12,12,12-trifluoro-11-hydroxy-7,7-dimethyl-11-trifluoromethyl-dodec-2-enylidene]-4-methylene-cyclohexane-1,3-diol], in data set [1], the MTD was 0.08 mg/kg and the HTD/VDR turned out to be 20. In addition, the MTD in data set [2] came out at 0.08 mg/kg. Moreover, the ED50 in data set [3] stood at 0.2 mg/kg. In addition, in data set [3] (hairless mice, oral), the “ratio (TI) HTD/ED50” value is reported as 0.4. In data set [4], the minimal effective dose came to 0.003 mg/kg and the Calcemic dose is 0.015 mg/kg. Further, the “TI (ratio Calc./Eff.)” value in data set [4] (minipigs) is reported as 5. Also, the EC50 on human VDR stood at 4 nM.

With `C=C1/C(=C\C=C\CCCC(C)(C)CCCC(C)(C)O)C[C@@H](O)C[C@@H]1O` [G, (Z)-(1R,3S)-5-[(E)-11-hydroxy-7,7,11-trimethyl-dodec-2-enylidene]-4-methylene-cyclohexane-1,3-diol], in data set [1], the MTD is > 5 mg/kg and the HTD/VDR came out at 45. Moreover, the MTD in the data set “in vivo” amounted to 20 mg/kg. Also, the ED50 in data set [3] was determined as 60 mg/kg. The “ratio (TI) HTD/ED50” value in data set [3] (hairless mice, oral) stood at 0.33. At human VDR, the EC50 was determined as 110 nM.

`CC(C)(O)CCCC(C)(C)CCC/C=C/C=C1C[C@@H](O)C[C@H](O)C1` [H, (2E)-(1R,3R)-5-(11-hydroxy-7,7,11-trimethyl-dodeca-2-enylidene)-cyclohexane-1,3-diol]: in data set [1], the MTD is > 5 mg/kg and the HTD/VDR came out at 18. The EC50 on human VDR was 280 nM.

As for `CC(C)(CC#CC(O)(C(F)(F)F)C(F)(F)F)CCC/C=C/C=C1C[C@@H](O)C[C@H](O)C1` [I, (E)-(1R,3R)-5-[12,12,12-trifluoro-11-hydroxy-7,7-dimethyl-11-trifluoromethyl-dodec-2-en-9-ynylidene]-cyclohexane-1,3-diol], in data set [1], the MTD was 0.333 mg/kg and the HTD/VDR came to 26. This compound had an MTD in data set [2] of 0.1 mg/kg. The ED50 in data set [3] was found to be 0.8 mg/kg. Besides, the “ratio (TI) HTD/ED50” value in data set [3] (hairless mice, oral) was 0.125. Further, in data set [4], the minimal effective dose worked out at 0.036 mg/kg and the Calcemic dose is 0.2 mg/kg. Besides, the “TI (ratio Calc./Eff.)” value in data set [4] (minipigs) is recorded as 6. Further, at human VDR, the EC50 came out at 13 nM.

As to `C=C1/C(=C\C=C\CCCC(C)(C)CC#CC(O)(C(F)(F)F)C(F)(F)F)C[C@@H](O)C[C@@H]1O` [J, (Z)-(1R,3S)-4-methylene-5-[(E)-12,12,12-trifluoro-11-hydroxy-7,7-dimethyl-11-trifluoromethyl-dodec-2-en-9-ynylidene]-cyclohexane-1,3-diol], in data set [1], the MTD amounted to 0.31 mg/kg and the HTD/VDR is listed as 65. The compound further displayed an MTD in data set [2] of 0.07 mg/kg. In addition, in data set [3], the ED50 came to 0.7 mg/kg. In data set [3] (hairless mice, oral), the “ratio (TI) HTD/ED50” value is reported as 0.1. Besides, in data set [4], the minimal effective dose amounted to 0.108 mg/kg and the Calcemic dose is > 0.324 mg/kg. Further, in data set [4] (minipigs), the “TI (ratio Calc./Eff.)” value is given as > 3. Besides, at human VDR, the EC50 is 4.8 nM.

`CC(C)(O)C#CCC(C)(C)CCC/C=C/C=C1C[C@@H](O)C[C@H](O)C1` [K, (10E)-(3R,5R)-12-(3,5-dihydroxy-cyclohexylidene)-6,6-dimethyl-2-methyl-dodec-10-en-3-yn-2-ol]: in data set [1], the MTD is > 5 mg/kg and the HTD/VDR was > 23. In addition, the EC50 on human VDR amounted to 220 nM.
